# From patent US8680071B2 (Idenix Pharmaceuticals, Inc., priority 2010, dated 2014)
# Where two headings read alike, the source gives them in different places.
# How the values were obtained:
# [1] = system: HCV Con1 subgenomic replicon; assay: HCV replicon assay (NS4A ELISA); format: cell-based; settings: Hepatitis C virus
# Description: (§1) Huh-7 cells containing HCV Con1 subgenomic replicon (GS4.1 cells), (C. Seeger; Fox Chase University, Philadelphia, Pa., USA), are grown in Dulbecco's Modified Eagle Medium (DMEM) supplemented with 10% fetal bovine serum (FBS), 2 mM L-glutamine, 110 mg/L sodium pyruvate, 1× non-essential amino acids, 100 U/mL penicillin-streptomycin and 0.5 mg/mL G418 (Invitrogen). For dose-response testing, the cells are seeded in 96-well plates at 7.5×10^3 cells/well in a volume of 50 μL and incubated at 37° C./5% CO2. Three hours after plating, 50 μL of ten 2-fold serial dilutions of compounds (highest concentration, 75 μM) are added and cell cultures were incubated at 37° C./5% CO2 in the presence of 0.5% DMSO. Alternatively, compounds are tested at a single concentration of 15 μM. In all cases, Huh-7 cells lacking the HCV replicon served as negative control. The cells are incubated in the presence of compounds for 72 hours after which they were monitored for expression of the NS4A protein by enzyme-linked immunosorbent assay (ELISA). For this, the plates were then fixed for 1 min with 1:1 acetone:methanol, washed twice with phosphate-buffered saline (PBS), 0.1% Tween 20, blocked for 1 hour at room temperature with TNE buffer containing 10% FBS and then incubated for 2 h at 37° C. with the anti-NS4A mouse monoclonal antibody A-236 (ViroGen) diluted in the same buffer. After washing three times with PBS, 0.1% Tween 20, the cells are incubated 1 hour at 37° C. with anti-mouse immunoglobulin G-peroxidase conjugate in TNE, 10% FBS. After washing as described above, the reaction is developed with O-phenylenediamine (Zymed). The reaction is stopped after 30 minutes with […] and the absorbance is read at 492 nm using a Sunrise Tecan spectrophotometer. EC50 values are determined from the % inhibition versus concentration data using a sigmoidal non-linear regression analysis based on four parameters with Tecan Magellan software. When screening at a single concentration, the results are expressed as % inhibition at 15 μM. For cytotoxicity evaluation, GS4.1 cells are treated with compounds as described above and cellular viability was monitored using a Cell Titer 96 AQueous One Solution Cell Proliferation Assay (Promega). CC50 values are determined from the % cytotoxicity versus concentration data with Tecan Magellan software as described above.
# Compounds presented in the table below were assayed according to the replicon assay described above.
# [2] = Cytotoxicity evaluation (Cell Titer 96 AQueous One Solution Cell Proliferation Assay); format: cell-based; settings: human, GS4.1 cells, cellular viability, read-out: HCV Replicon CC50
# Description: as §1
# [3] = ELISA 2 assay, Huh-7 cells containing HCV Con1 subgenomic replicon (GS4.1 cells), 72 hours, NS4A expression, read-out: HCV Replicon EC50
# [4] = Huh-7, 72 h, read-out: HCV Replicon EC50 (μM)
SMILES,"EC50 [1, 3]",CC50 at 72 h [2],"EC50 [1, 4]"
"C[C@@]1(O)[C@H](O)[C@@H](CO)O[C@H]1n1cnc2c(=O)[nH]c(N)nc21 [2′-C-methylguanosine, reference compound]",1 to 10 µM,> 75 µM,–
COC(=O)C(CC(C)C)NP(=O)(NC(CC(C)C)C(=O)OC)OC[C@H]1O[C@@H](n2cnc3c(OC)nc(N)nc32)C(C)(O)C1O (stereo partly drawn) [Compound 3],< 1 µM,> 75 µM,–
COC(=O)C(CC(C)C)NP(=O)(NC(CC(C)C)C(=O)OC)OC[C@H]1O[C@@H](n2cnc3c(OC)nc(N)nc32)[C@@]2(C)OC(=O)OC12 (stereo partly drawn) [Compound 4],< 1 µM,> 75 µM,–
CCOC(=O)C(CC(C)C)NP(=O)(NC(CC(C)C)C(=O)OCC)OC[C@H]1O[C@@H](n2cnc3c(NC4CC4)nc(N)nc32)C(C)(O)C1O (stereo partly drawn) [Compound 6],< 1 µM,> 75 µM,–
COC(=O)C(CC(C)C)NP(=O)(NC(CC(C)C)C(=O)OC)OC[C@H]1O[C@@H](n2cnc3c(NC4CC4)nc(N)nc32)C(C)(O)C1O (stereo partly drawn) [Compound 8],< 1 µM,> 75 µM,–
COC(=O)C(CC(C)C)NP(=O)(NC(CC(C)C)C(=O)OC)OC[C@H]1O[C@@H](n2cnc3c(=O)[nH]c(N)nc32)C(C)(O)C1O (stereo partly drawn) [Compound 9],–,> 75 µM,1 to 10 µM
C#CC1(F)C(O)[C@@H](COP(=O)(NCC(=O)OCC)NCC(=O)OCC)O[C@H]1n1cnc2c(=O)[nH]c(N)nc21 (stereo partly drawn) [Compound 48],–,> 75 µM,> 10 µM
CCOC(=O)CNP(=O)(NCC(=O)OCC)OC[C@H]1O[C@@H](n2cnc3c(=O)[nH]c(N)nc32)C(C)(O)C1O (stereo partly drawn) [Compound 54],–,> 75 µM,1 to 10 µM
C#C[C@@]1(F)[C@H](O)[C@@H](CO)O[C@H]1n1cnc2c(=O)[nH]c(N)nc21 [reference compound],> 10 µM,> 75 µM,–
